The results in this text go back to patent US20260138978A1, “POSITIVE ALLOSTERIC MODULATORS OF THE MUSCARINIC ACETYLCHOLINE RECEPTOR M1” (Vanderbilt University, priority 2022, published 2026).

The target in experiment [1] is T1, human mAChRM1 (Homo sapiens, UniProt P11229).
T1 construct: host or cells: CHO-K1
T1 sequence (P11229 1-460): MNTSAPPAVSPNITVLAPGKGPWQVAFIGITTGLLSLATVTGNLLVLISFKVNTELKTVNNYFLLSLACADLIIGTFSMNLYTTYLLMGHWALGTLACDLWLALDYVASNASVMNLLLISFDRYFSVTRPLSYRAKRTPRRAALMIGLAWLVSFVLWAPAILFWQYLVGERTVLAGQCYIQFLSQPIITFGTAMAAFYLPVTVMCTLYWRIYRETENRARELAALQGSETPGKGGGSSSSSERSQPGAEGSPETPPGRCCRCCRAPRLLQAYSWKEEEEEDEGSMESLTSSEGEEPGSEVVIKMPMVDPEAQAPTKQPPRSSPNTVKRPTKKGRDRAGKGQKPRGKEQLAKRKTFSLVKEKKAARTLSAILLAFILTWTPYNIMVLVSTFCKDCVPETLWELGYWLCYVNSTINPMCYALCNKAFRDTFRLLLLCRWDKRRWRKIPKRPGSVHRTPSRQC
Nature of the experiment: mAChR M1 cell-based functional assay (calcium mobilization), positive allosteric modulator activity: increase in the EC20 acetylcholine response. Particulars: for Emax: PAM mode; for EC50: increase in the EC20 acetylcholine response, read-out: PAM Activity Human M1 EC50; call rule not given here. Summed up:
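CHO-K1 cells stably expressing human M1, loaded with Fluo-4 AM; calcium flux recorded on FDSS at 1 Hz over 300 s following compound addition. PAM activity is the concentration-dependent increase of an EC20 acetylcholine response; EC50 and Emax from four-parameter logistic fits of 11-point, 1:3 concentration series.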
A general note: Calcium flux is commonly read through the fluorescence of an indicator in the cells.

The target of experiment [2] is T1, human mAChRM1. Briefly: mAChR M1 cell-based functional assay (calcium mobilization), agonist activity upon compound addition, Emax relative to acetylcholine maximum. The essentials: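 CHO-K1 cells stably expressing human M1 were loaded with Fluo-4 AM for 50 min at 37 °C. Compound was added 4 s into a 300 s FDSS read at 1 Hz, over 11-point 1:3 dilution curves. Agonism was taken as a concentration-dependent rise in calcium fluorescence ratio, with Emax expressed relative to the acetylcholine maximum from four-parameter logistic fits.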

[3] abbreviates: calcium mobilization upon compound addition.

Structures are written as SMILES.

For `[2H]C([2H])([2H])C(O)(c1ccc(-c2cc(F)c(CN3Cc4cccc(F)c4C3=O)c(F)c2)c2cn(C)nc12)C([2H])([2H])[2H]` [Compound 156, 2-(2,6-difluoro-4-(7-(2-hydroxypropan-2-yl-1,1,1,3,3,3-d)-2-methyl-2H-indazol-4-yl)benzyl)-7-fluoroisoindolin-1-one], in experiment [1], the Emax worked out at 83% and the half-maximal effective concentration (EC50) came out at 0.136 µM. Moreover, in experiment [2] (setting [3]), the “Agonist Activity Human M1 EC50” value is “inactive”.

For the molecule `Cn1cc2c(-c3cc(F)c(CN4Cc5ncccc5C4=O)c(F)c3)cc(C(C)(C)O)cc2n1` [Compound 24, 6-(2,6-Difluoro-4-(6-(2-hydroxypropan-2-yl)-2-methyl-2H-indazol-4-yl)benzyl)-6,7-dihydro-5H-pyrrolo[3,4-b]pyridin-5-one], in experiment [1], the maximal effect (Emax) came to 81% and the EC50 was 1.92 µM. Further, the “Agonist Activity Human M1 EC50” value in experiment [2] (setting [3]) is “inactive”.

On to `Cn1cc2c(-c3cc(F)c(CN4Cc5cccnc5C4=O)c(F)c3)ccc(C(C)(C)O)c2n1` [Compound 121, 6-(2,6-difluoro-4-(7-(2-hydroxypropan-2-yl)-2-methyl-2H-indazol-4-yl)benzyl)-5,6-dihydro-7H-pyrrolo[3,4-b]pyridin-7-one], for which the maximal response (Emax) in experiment [1] turned out to be 88%; in experiment [2] (relative to the maximum for acetylcholine), 22%. For the same molecule, the EC50 was 0.201 µM in experiment [1] and at least 10 µM in experiment [2] (setting [3]).

Broadly, the Emax is the size of the effect at its maximum, as opposed to the concentration needed. The EC50 is the concentration needed to bring the measured effect to its halfway point.
